Legend:
[1] = test system: MIN6 cells (pancreatic β cell line); assay: EdU cell proliferation assay, growth promotion of pancreatic β cells (2), versus culture supernatants; format: cell-based; conditions: betagenin 1 nM, compared with IBCAP culture supernatant and Mock culture supernatant (0.5 μL/well), Mock taken as 1.0, FIG. 4
Protocol: MIN6 cells provided by Dr. Miyazaki at Osaka University were used as a pancreatic β cell line. MIN6 cells were maintained in a DMEM culture medium with added 15% (v/v) of FBS.
A DMSO solution was prepared so that the concentration of chemically synthesized betagenin was 97% of purity, as a pancreatic hormone-producing cell growth-promoting agent.
First, HEK293T cells passaged in a DMEM culture medium with added 5% FBS and antibiotics (penicillin 100 U/mL, streptomycin […]) were plated on a 10 cm dish at 1×10^6 cells. On the next day, HEK293T cells were transfected with an expression vector (pCAGGS-IBCAP) constructed by ligating the gene encoding the IBCAP (=Betagenin) set forth in SEQ ID NO: 2 (which is corresponds to human TM4SF20, and hereinafter referred to “IBCAP.”) using FuGEN6 (Roche) to overexpression of IBCAP. The culture medium was replaced with an Opti-MEM culture medium 24 hours after that, and a culture supernatant was then collected another 24 hours after that, which was then used as an IBCAP culture supernatant for the subsequent experiments. […]
The incorporated EdU was visualized as red fluorescence using Alexa Flour™ 594, and observed with a fluorescence microscope (Carl Zeiss).

[2] = test system: human iPS cells (253G1 cells); assay: Differentiation induction of human iPS cells into pancreatic hormone-producing cells (2), quantitative RT-PCR; format: cell-based; conditions: 1 nM betagenin in steps (A2) to (D2), vs ACN control, GAPDH corrected
Protocol: As human iPS cells, used were 253G1 cells purchased from the cell bank at RIKEN. The cells were cultured/maintained in an ES cell culture medium (DMEM/ham F12, 20% KSR, nonessential amino acid, 2 mM L-glutamine, 0.1 mM 2-mercaptoethanol, 5.2 mM NaOH) with added 4 ng/mL FGF-2 (Global Stem) and penicillin/streptomycin (Nacalai Tesque, Inc.) along with SNL76/7 cells (DS Pharma Biomedical) treated with mitomycin-C. CTK (0.25% trypsin, 1 mg/mL Collagenase IV, 20% KSR, 1 mM CaCl2 in PBS) was used for cell detachment, and diluted at a ratio of 1:3 to 1:4 to perform passage culture.
The cells were detached with trypsin-EDTA 3 days before the start of differentiation induction, and plated at a cell density of 6.3×10^4 cells/cm2, and cultured for 1 day in an ES cell culture medium with added 10 μM Y-27632 (Wako), 4 ng/mL FGF-2 and penicillin/streptomycin along with STO cells treated with mitomycin-C. Subsequently, they were further cultured for 2 days in an ES cell culture medium with added 4 ng/mL FGF-2 and penicillin/streptomycin.
On the first day of the start of differentiation induction, the culture medium was replaced with a RPMI1640 culture medium (Nacalai Tesque, Inc.) with added 2% (v/v) FBS, 100 ng/mL activin A (SBI), 3 μM CHIR99021 (Axon Medchem) and 1 nM betagenin, and cultured for 1 day (Step (A2)). […]
The gene expressions of insulin, glucagon, somatostatin were confirmed by quantitative RT-PCR for cells (n=3 for each of the betagenin addition group and the control group) obtained from 253G1 cells via the above steps (A2) to (D2). Specifically, total RNA was first extracted from the cells using a SV Total RNA Isolation System (Promega), and reverse transcription reactions were performed with BioScript™ transcriptase (Bioline), and then quantitative PCR analysis was performed with LightCycler™ (Roche) using SYBR™ Green PCR Master Mix (Applied Biosystems). Note that the gene expression of GAPDH was determined by quantitative RT-PCR as an internal control. […]

## betagenin: chemically synthesized peptide of SEQ ID NO: 1, fragment of human TM4SF20 from Position 170 to Position 229 (WRASSFHFDSEENKHRLIHFSVFLGLLLVGILEVLFGLSQIVIGFLGCLCGVSKRRSQIV; Peptide Sequence betagenin; listed as Homo sapiens)
[1]
  relative EdU fluorescence intensity: significantly increased
[2]; first day taken as 1, FIG. 6
  amount of expression of insulin (relative): increased
[2]; first day taken as 1, FIG. 7
  amount of expression of glucagon (relative): increased
[2]; first day taken as 1, FIG. 8
  amount of expression of somatostatin (relative): increased

— patent publication US9856304B2, “Peptide and application thereof” (Saitama Medical University, priority 2013, dated 2018)
